Values of other authors, collected in publication PMC2709231 (European Journal of Nuclear Medicine and Molecular Imaging, 2009).

Details: human, in vivo

In the case of “^90Y-DTPA-(D)Glu^1-(Glu)5-Ala-Tyr-Gly-Trp-Met-Asp-Phe-NH2 [^90Y-DTPA-DGlu^1-minigastrin]”, the “Side effects of radionuclide therapy” value is given as “serious side effects, including renal insufficiency and bone marrow toxicity”.
